Results reported in ChEMBL document CHEMBL1201862, “PubChem BioAssay data set” (2004).
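1) Cells in 96-well plates. 2) Compound, 48 h, 5 concentrations. 3) Linear interpolation between surrounding doses. 4) Unreached endpoint = highest concentration. GI50 marks 50% less growth.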 Activity calls are given as the source filed them. No stated cut-off is given here; in the data, active = GI50 up to about 1.1 µM and inactive = higher.

Key:
Assay in all cases: DTP human tumour cell line panel, 48 h
NCI-H226 = tested on: NCI-H226
DMS-114 = tested on: DMS-114
CCRF-CEM = tested on: CCRF-CEM
SK-MEL-2 = tested on: SK-MEL-2
SNB-78 = tested on: SNB-78
OVCAR-8 = tested on: OVCAR-8
KM-20L2 = tested on: KM-20L2
SF-295 = tested on: SF-295
HOP-92 = tested on: HOP-92
U-251 = tested on: U-251
SK-OV-3 = tested on: SK-OV-3
LXFL 529 = tested on: LXFL 529
OVCAR-3 = tested on: OVCAR-3
OVCAR-4 = tested on: OVCAR-4
HOP-62 = tested on: HOP-62
SNB-19 = tested on: SNB-19
HCT-116 = tested on: HCT-116
HL-60 = tested on: HL-60
DLD-1 = tested on: DLD-1
COLO 205 = tested on: COLO 205
UACC-257 = tested on: UACC-257
SNB-75 = tested on: SNB-75
HT-29 = tested on: HT-29
LOX IMVI = tested on: LOX IMVI
OVCAR-5 = tested on: OVCAR-5
786-0 = tested on: 786-0
HCC 2998 = tested on: HCC 2998
ACHN = tested on: ACHN
SF-268 = tested on: SF-268
CAKI-1 = tested on: CAKI-1
SK-MEL-5 = tested on: SK-MEL-5
TK-10 = tested on: TK-10
SK-MEL-28 = tested on: SK-MEL-28
EKVX = tested on: EKVX
KM12 = tested on: KM12
M14 = tested on: M14
SN12C = tested on: SN12C
RPMI-8226 = tested on: RPMI-8226
NCI-H23 = tested on: NCI-H23
NCI-H522 = tested on: NCI-H522
RXF 393 = tested on: RXF 393
M19-MEL = tested on: M19-MEL
SF-539 = tested on: SF-539
A549 = tested on: A549
IGROV-1 = tested on: IGROV-1
K562 = tested on: K562
UO-31 = tested on: UO-31
Malme-3M = tested on: Malme-3M
SW-620 = tested on: SW-620
MOLT-4 = tested on: MOLT-4
NCI-H460 = tested on: NCI-H460
HOP-18 = tested on: HOP-18
UACC-62 = tested on: UACC-62
HCT-15 = tested on: HCT-15
A498 = tested on: A498

CCc1ccccc1NC(=O)C1=C(C)NC(C)=C(C(=O)Nc2ccccc2CC)C1c1ccc(NC(C)=O)cc1
GI50 (NCI-H226): 29.4 µM (inactive) | GI50 (DMS-114): 28.1 µM (inactive) | GI50 (CCRF-CEM): 18.7 µM (inactive) | GI50 (SK-MEL-2): 22.4 µM (inactive) | GI50 (SNB-78): 33.3 µM (inactive) | GI50 (OVCAR-8): 33.9 µM (inactive) | GI50 (KM-20L2): 16.4 µM (inactive) | GI50 (SF-295): 54.7 µM (inactive) | GI50 (HOP-92): 25.8 µM (inactive) | GI50 (U-251): 53.6 µM (inactive) | GI50 (SK-OV-3): > 100 µM (inactive) | GI50 (LXFL 529): 33 µM (inactive) | GI50 (OVCAR-3): 33.2 µM (inactive) | GI50 (OVCAR-4): 35.1 µM (inactive) | GI50 (HOP-62): 36.7 µM (inactive) | GI50 (SNB-19): 92.7 µM (inactive) | GI50 (HCT-116): 35.2 µM (inactive) | GI50 (HL-60): 14.3 µM (inactive) | GI50 (DLD-1): 26.5 µM (inactive) | GI50 (COLO 205): 58.3 µM (inactive) | GI50 (UACC-257): 36.3 µM (inactive) | GI50 (SNB-75): 21.4 µM (inactive) | GI50 (HT-29): 37.7 µM (inactive) | GI50 (LOX IMVI): 16.1 µM (inactive) | GI50 (OVCAR-5): > 100 µM (inactive) | GI50 (786-0): 37.8 µM (inactive) | GI50 (HCC 2998): 19.5 µM (inactive) | GI50 (ACHN): 28.5 µM (inactive) | GI50 (SF-268): 38.1 µM (inactive) | GI50 (CAKI-1): 43.1 µM (inactive) | GI50 (SK-MEL-5): 38.1 µM (inactive) | GI50 (TK-10): > 100 µM (inactive) | GI50 (SK-MEL-28): 22.2 µM (inactive) | GI50 (EKVX): 60.7 µM (inactive) | GI50 (KM12): 28.1 µM (inactive) | GI50 (M14): 39 µM (inactive) | GI50 (SN12C): 29.8 µM (inactive) | GI50 (RPMI-8226): 17 µM (inactive) | GI50 (NCI-H23): 42.7 µM (inactive) | GI50 (NCI-H522): 20.8 µM (inactive) | GI50 (RXF 393): 17.4 µM (inactive) | GI50 (M19-MEL): 32.7 µM (inactive) | GI50 (SF-539): 25.9 µM (inactive) | GI50 (A549): 51.1 µM (inactive) | GI50 (IGROV-1): 28.4 µM (inactive) | GI50 (K562): 23.1 µM (inactive) | GI50 (UO-31): 35.2 µM (inactive) | GI50 (Malme-3M): 49.1 µM (inactive) | GI50 (SW-620): 41.2 µM (inactive) | GI50 (MOLT-4): 15.3 µM (inactive) | GI50 (NCI-H460): 30.5 µM (inactive)

Cc1cccc(C)c1NC(=O)C1C(=O)N(c2c(C)cccc2C)C(=O)/C1=N\NC(N)=S (stereo not given)
GI50 (DMS-114): 36.1 µM (inactive) | GI50 (CCRF-CEM): > 100 µM (inactive) | GI50 (SK-MEL-2): > 100 µM (inactive) | GI50 (HOP-18): 17.3 µM (inactive) | GI50 (SNB-78): > 100 µM (inactive) | GI50 (OVCAR-8): > 100 µM (inactive) | GI50 (KM-20L2): 82.8 µM (inactive) | GI50 (SF-295): > 100 µM (inactive) | GI50 (HOP-92): > 100 µM (inactive) | GI50 (U-251): > 100 µM (inactive) | GI50 (LXFL 529): > 100 µM (inactive) | GI50 (OVCAR-3): > 100 µM (inactive) | GI50 (OVCAR-4): > 100 µM (inactive) | GI50 (HOP-62): > 100 µM (inactive) | GI50 (SNB-19): > 100 µM (inactive) | GI50 (HCT-116): 58.2 µM (inactive) | GI50 (HL-60): > 100 µM (inactive) | GI50 (DLD-1): > 100 µM (inactive) | GI50 (UACC-257): > 100 µM (inactive) | GI50 (HT-29): > 100 µM (inactive) | GI50 (UACC-62): > 100 µM (inactive) | GI50 (HCT-15): > 100 µM | GI50 (OVCAR-5): > 100 µM (inactive) | GI50 (786-0): > 100 µM (inactive) | GI50 (A498): > 100 µM (inactive) | GI50 (HCC 2998): > 100 µM (inactive) | GI50 (ACHN): > 100 µM (inactive) | GI50 (SF-268): > 100 µM (inactive) | GI50 (SK-MEL-5): > 100 µM (inactive) | GI50 (TK-10): > 100 µM (inactive) | GI50 (SK-MEL-28): > 100 µM (inactive) | GI50 (EKVX): > 100 µM (inactive) | GI50 (KM12): > 100 µM (inactive) | GI50 (M14): > 100 µM (inactive) | GI50 (SN12C): > 100 µM (inactive) | GI50 (RPMI-8226): 89.5 µM (inactive) | GI50 (NCI-H23): > 100 µM (inactive) | GI50 (NCI-H522): > 100 µM (inactive) | GI50 (RXF 393): 10.4 µM (inactive) | GI50 (M19-MEL): > 100 µM (inactive) | GI50 (SF-539): > 100 µM (inactive) | GI50 (A549): > 100 µM (inactive) | GI50 (IGROV-1): > 100 µM (inactive) | GI50 (K562): 92.9 µM (inactive) | GI50 (UO-31): > 100 µM (inactive) | GI50 (Malme-3M): > 100 µM (inactive) | GI50 (SW-620): > 100 µM (inactive) | GI50 (MOLT-4): 75.3 µM (inactive) | GI50 (NCI-H460): > 100 µM (inactive)
